How the values were obtained:
Assay in all cases: Kinase Profiling (KINOMEscan)
Assay type in all cases: binding
[1] = target: 456 kinases (of these 395 non-mutant kinases) (Homo sapiens, UniProt P49841); conditions: GSK3B; 10 μM
[2] = target: 456 kinases (of these 395 non-mutant kinases) (Homo sapiens, UniProt Q09013); conditions: DMPK; 10 μM
[3] = target: 456 kinases (of these 395 non-mutant kinases) (Homo sapiens, UniProt Q9HBY8); conditions: SGK2; 10 μM
[4] = target: 456 kinases (of these 395 non-mutant kinases) (Homo sapiens, UniProt P07949, V804L); conditions: RET(V804L); 10 μM
[5] = target: 456 kinases (of these 395 non-mutant kinases) (Homo sapiens, UniProt P06241); conditions: FYN; 10 μM
[6] = target: 456 kinases (of these 395 non-mutant kinases) (Homo sapiens, UniProt P00519); conditions: 10 μM
[7] = target: 456 kinases (of these 395 non-mutant kinases) (Homo sapiens, UniProt P10721, V559D/V654A); conditions: KIT(V559D,V654A); 10 μM
[8] = target: 456 kinases (of these 395 non-mutant kinases) (Homo sapiens, UniProt Q9H093); conditions: SNARK; 10 μM
[9] = target: 456 kinases (of these 395 non-mutant kinases) (Homo sapiens, UniProt Q02156); conditions: PRKCE; 10 μM
[10] = target: 456 kinases (of these 395 non-mutant kinases) (Homo sapiens, UniProt Q16584); conditions: MLK3; 10 μM
[11] = target: 456 kinases (of these 395 non-mutant kinases) (Homo sapiens, UniProt P45985); conditions: MEK4; 10 μM
[12] = target: 456 kinases (of these 395 non-mutant kinases) (Homo sapiens, UniProt Q9NYL2); conditions: ZAK; 10 μM
[13] = target: 456 kinases (of these 395 non-mutant kinases) (Homo sapiens, UniProt Q02779); conditions: MLK2; 10 μM
[14] = target: 456 kinases (of these 395 non-mutant kinases) (Homo sapiens, UniProt P15056); conditions: BRAF; 10 μM
[15] = target: 456 kinases (of these 395 non-mutant kinases) (Homo sapiens, UniProt O00238); conditions: BMPR1B; 10 μM
[16] = target: 456 kinases (of these 395 non-mutant kinases) (Homo sapiens, UniProt P36888); conditions: 10 μM
[17] = target: 456 kinases (of these 395 non-mutant kinases) (Homo sapiens, UniProt Q96BR1); conditions: SGK3; 10 μM
[18] = target: 456 kinases (of these 395 non-mutant kinases) (Homo sapiens, UniProt Q14012); conditions: CAMK1; 10 μM
[19] = target: 456 kinases (of these 395 non-mutant kinases) (Homo sapiens, UniProt O75676); conditions: 10 μM
[20] = target: 456 kinases (of these 395 non-mutant kinases) (Homo sapiens, UniProt Q9H422); conditions: HIPK3; 10 μM
[21] = target: 456 kinases (of these 395 non-mutant kinases) (Homo sapiens, UniProt Q9HAZ1); conditions: CLK4; 10 μM
[22] = target: 456 kinases (of these 395 non-mutant kinases) (Homo sapiens, UniProt Q96GD4); conditions: AURKB; 10 μM
[23] = target: 456 kinases (of these 395 non-mutant kinases) (Homo sapiens, UniProt Q8TD08); conditions: ERK8; 10 μM
[24] = target: 456 kinases (of these 395 non-mutant kinases) (Homo sapiens, UniProt P00533, T790M); conditions: EGFR(T790M); 10 μM
[25] = target: 456 kinases (of these 395 non-mutant kinases) (Homo sapiens, UniProt Q13188); conditions: MST2; 10 μM
[26] = target: 456 kinases (of these 395 non-mutant kinases) (Homo sapiens, UniProt P00533); conditions: EGFR; 10 μM
[27] = target: 456 kinases (of these 395 non-mutant kinases) (Homo sapiens, UniProt P31749); conditions: AKT1; 10 μM
[28] = target: 456 kinases (of these 395 non-mutant kinases) (Homo sapiens, UniProt Q9P0L2); conditions: MARK1; 10 μM
[29] = target: 456 kinases (of these 395 non-mutant kinases) (Homo sapiens, UniProt P29323); conditions: EPHB2; 10 μM
[30] = target: 456 kinases (of these 395 non-mutant kinases) (Homo sapiens, UniProt P54762); conditions: EPHB1; 10 μM
[31] = target: 456 kinases (of these 395 non-mutant kinases) (Homo sapiens, UniProt Q8N5S9); conditions: CAMKK1; 10 μM
[32] = target: 456 kinases (of these 395 non-mutant kinases) (Homo sapiens, UniProt P29322); conditions: EPHA8; 10 μM
Sequence of 456 kinases (of these 395 non-mutant kinases) (Homo sapiens, UniProt P29322) (P29322 28-1005 limits assumed, change not shown): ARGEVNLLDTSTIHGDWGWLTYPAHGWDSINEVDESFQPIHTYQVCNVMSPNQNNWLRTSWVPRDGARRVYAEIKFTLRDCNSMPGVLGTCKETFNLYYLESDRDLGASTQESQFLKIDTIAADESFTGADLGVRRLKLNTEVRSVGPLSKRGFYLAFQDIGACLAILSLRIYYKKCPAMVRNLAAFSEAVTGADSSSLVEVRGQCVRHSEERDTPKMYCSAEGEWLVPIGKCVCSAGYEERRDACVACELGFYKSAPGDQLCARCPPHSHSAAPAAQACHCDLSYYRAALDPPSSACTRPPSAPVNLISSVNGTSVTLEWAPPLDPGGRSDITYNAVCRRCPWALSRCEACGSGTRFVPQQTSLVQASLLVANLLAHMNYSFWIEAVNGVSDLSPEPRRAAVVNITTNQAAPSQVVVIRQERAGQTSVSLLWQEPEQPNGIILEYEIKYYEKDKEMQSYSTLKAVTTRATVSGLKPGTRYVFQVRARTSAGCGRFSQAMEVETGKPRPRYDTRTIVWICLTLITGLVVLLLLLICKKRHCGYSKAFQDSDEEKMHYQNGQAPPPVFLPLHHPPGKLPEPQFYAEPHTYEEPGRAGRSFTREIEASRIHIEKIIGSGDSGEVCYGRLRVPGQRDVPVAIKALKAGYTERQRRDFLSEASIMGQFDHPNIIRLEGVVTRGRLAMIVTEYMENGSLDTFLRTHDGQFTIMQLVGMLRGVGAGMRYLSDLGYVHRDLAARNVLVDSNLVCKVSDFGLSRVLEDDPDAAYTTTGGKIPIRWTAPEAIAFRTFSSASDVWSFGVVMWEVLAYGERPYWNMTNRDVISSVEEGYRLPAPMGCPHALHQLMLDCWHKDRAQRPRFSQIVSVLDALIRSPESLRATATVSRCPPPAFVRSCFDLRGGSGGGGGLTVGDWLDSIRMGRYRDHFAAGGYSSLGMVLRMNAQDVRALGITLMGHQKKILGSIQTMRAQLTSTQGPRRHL

Sequence of 456 kinases (of these 395 non-mutant kinases) (Homo sapiens, UniProt P36888) (P36888 27-993 limits assumed, change not shown): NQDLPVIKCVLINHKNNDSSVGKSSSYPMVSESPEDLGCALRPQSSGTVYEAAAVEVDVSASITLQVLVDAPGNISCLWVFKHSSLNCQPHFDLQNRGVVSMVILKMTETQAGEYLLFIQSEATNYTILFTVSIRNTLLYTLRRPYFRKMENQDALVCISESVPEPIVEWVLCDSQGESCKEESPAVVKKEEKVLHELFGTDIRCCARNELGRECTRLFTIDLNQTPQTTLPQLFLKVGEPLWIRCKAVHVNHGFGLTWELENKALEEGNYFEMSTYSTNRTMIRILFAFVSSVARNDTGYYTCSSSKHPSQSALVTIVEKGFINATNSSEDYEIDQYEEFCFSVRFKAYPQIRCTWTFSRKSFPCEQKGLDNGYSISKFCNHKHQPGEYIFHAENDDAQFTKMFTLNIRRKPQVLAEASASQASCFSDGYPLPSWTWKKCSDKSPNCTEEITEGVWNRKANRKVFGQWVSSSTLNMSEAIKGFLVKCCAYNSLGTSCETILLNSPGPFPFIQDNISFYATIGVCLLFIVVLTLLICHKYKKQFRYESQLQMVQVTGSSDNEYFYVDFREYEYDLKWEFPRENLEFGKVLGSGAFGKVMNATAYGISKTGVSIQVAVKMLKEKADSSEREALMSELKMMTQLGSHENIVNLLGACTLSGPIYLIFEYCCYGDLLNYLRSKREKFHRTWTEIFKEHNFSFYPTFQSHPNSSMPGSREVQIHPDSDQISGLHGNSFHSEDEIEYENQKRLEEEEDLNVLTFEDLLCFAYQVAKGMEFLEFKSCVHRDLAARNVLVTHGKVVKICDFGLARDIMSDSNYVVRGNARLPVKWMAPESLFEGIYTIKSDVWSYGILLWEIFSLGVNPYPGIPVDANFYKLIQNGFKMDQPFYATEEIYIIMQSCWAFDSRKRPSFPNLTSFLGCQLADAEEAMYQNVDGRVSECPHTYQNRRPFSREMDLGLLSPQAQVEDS
Sequence of 456 kinases (of these 395 non-mutant kinases) (Homo sapiens, UniProt Q9NYL2) (Q9NYL2 2-800 limits assumed, change not shown): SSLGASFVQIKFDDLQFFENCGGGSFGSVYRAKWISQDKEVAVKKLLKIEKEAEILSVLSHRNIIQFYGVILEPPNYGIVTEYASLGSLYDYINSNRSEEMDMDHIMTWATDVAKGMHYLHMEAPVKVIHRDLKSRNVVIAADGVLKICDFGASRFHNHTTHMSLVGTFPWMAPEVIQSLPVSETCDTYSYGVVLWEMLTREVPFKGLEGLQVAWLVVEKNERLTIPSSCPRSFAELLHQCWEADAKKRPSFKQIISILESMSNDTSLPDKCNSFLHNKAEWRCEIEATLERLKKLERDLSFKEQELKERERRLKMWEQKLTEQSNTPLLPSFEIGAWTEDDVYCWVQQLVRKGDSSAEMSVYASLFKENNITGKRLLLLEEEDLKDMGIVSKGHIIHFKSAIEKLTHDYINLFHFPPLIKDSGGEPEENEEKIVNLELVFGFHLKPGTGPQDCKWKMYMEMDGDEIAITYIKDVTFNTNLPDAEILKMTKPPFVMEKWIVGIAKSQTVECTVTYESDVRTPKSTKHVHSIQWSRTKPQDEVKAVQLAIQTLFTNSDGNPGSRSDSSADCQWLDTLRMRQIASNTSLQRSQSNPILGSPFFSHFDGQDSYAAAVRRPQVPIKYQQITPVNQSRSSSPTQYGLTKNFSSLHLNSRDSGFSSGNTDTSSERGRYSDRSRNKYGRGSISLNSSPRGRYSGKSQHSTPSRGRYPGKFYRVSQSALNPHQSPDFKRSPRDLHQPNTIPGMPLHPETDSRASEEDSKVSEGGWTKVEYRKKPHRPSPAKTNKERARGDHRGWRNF
Sequence of 456 kinases (of these 395 non-mutant kinases) (Homo sapiens, UniProt P06241) (P06241 2-537 limits assumed, change not shown): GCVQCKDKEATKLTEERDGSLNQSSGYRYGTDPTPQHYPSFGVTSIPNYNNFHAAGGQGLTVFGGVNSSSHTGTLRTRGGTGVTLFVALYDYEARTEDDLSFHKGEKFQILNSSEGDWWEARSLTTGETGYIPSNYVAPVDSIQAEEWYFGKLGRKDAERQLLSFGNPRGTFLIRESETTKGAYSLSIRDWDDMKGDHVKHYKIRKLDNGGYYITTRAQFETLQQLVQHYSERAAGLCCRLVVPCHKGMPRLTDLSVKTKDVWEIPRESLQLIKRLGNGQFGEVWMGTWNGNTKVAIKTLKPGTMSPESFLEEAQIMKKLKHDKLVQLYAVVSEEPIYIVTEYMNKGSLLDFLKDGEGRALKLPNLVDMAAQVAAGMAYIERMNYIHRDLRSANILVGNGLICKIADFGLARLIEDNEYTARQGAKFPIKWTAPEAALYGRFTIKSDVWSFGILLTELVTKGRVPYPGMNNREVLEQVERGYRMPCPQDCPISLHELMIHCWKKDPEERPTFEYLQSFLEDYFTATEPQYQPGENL
Sequence of 456 kinases (of these 395 non-mutant kinases) (Homo sapiens, UniProt P45985) (P45985 2-399 limits assumed, change not shown): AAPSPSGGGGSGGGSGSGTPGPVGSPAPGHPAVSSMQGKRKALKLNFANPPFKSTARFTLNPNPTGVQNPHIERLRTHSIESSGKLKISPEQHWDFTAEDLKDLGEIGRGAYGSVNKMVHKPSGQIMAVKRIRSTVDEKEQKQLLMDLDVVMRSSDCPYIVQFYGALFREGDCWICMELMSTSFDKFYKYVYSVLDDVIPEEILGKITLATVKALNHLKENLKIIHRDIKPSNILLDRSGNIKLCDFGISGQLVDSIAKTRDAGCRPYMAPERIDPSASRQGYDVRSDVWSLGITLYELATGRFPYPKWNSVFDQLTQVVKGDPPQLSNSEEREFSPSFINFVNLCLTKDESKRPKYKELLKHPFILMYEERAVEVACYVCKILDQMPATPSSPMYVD
Sequence of 456 kinases (of these 395 non-mutant kinases) (Homo sapiens, UniProt P54762) (P54762 18-984 limits assumed, change not shown): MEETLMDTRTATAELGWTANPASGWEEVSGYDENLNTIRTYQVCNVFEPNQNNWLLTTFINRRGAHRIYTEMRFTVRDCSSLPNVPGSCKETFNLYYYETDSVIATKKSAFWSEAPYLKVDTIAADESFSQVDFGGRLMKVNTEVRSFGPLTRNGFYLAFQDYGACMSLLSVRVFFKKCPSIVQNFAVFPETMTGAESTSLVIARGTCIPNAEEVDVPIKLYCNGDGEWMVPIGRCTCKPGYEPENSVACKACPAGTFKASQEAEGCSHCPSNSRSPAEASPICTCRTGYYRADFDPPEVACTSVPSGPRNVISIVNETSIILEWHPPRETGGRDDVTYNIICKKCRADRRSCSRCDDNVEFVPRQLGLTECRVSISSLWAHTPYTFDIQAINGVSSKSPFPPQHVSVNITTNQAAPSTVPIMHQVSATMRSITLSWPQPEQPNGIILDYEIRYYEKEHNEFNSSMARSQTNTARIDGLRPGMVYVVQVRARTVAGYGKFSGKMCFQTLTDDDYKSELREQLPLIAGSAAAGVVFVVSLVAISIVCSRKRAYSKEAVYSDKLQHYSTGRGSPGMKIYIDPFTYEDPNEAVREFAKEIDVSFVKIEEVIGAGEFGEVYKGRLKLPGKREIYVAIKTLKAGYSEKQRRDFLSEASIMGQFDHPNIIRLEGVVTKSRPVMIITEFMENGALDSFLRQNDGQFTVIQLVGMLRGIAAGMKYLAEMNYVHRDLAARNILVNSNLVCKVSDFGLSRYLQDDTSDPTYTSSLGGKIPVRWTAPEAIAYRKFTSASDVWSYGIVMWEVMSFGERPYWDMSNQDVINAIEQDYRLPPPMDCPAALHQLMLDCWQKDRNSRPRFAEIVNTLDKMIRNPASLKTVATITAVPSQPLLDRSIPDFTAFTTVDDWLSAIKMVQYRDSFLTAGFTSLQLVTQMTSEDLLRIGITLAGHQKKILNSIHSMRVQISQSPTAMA

CCc1ccccc1NC(=O)c1c(C)nsc1Nc1cnc2cc(F)ccc2n1 [Example 20, N-(2-Ethylphenyl)-5-[(6-fluoroquinoxalin-2-yl)amino]-3-methyl-1,2-thiazole-4-carboxamide]
% Ctrl @ 10 μM [1]: 100 % Ctrl
% Ctrl @ 10 μM [2]: 84 % Ctrl
% Ctrl @ 10 μM [3]: 100 % Ctrl
% Ctrl @ 10 μM [4]: 89 % Ctrl
% Ctrl @ 10 μM [5]: 57 % Ctrl
% Ctrl @ 10 μM ([6]; ABL1-nonphosphorylated): 100 % Ctrl
% Ctrl @ 10 μM ([6]; ABL1-phosphorylated): 100 % Ctrl
% Ctrl @ 10 μM [7]: 96 % Ctrl
% Ctrl @ 10 μM [8]: 100 % Ctrl
% Ctrl @ 10 μM [9]: 75 % Ctrl
% Ctrl @ 10 μM [10]: 90 % Ctrl
% Ctrl @ 10 μM [11]: 67 % Ctrl
% Ctrl @ 10 μM [12]: 78 % Ctrl
% Ctrl @ 10 μM [13]: 78 % Ctrl
% Ctrl @ 10 μM [14]: 82 % Ctrl
% Ctrl @ 10 μM [15]: 95 % Ctrl
% Ctrl @ 10 μM ([16]; FLT3-autoinhibited): 100 % Ctrl
% Ctrl @ 10 μM ([16]; FLT3): 80 % Ctrl
% Ctrl @ 10 μM [17]: 100 % Ctrl
% Ctrl @ 10 μM [18]: 68 % Ctrl
% Ctrl @ 10 μM ([19]; RPS6KA4(Kin.Dom.1-N-terminal)): 93 % Ctrl
% Ctrl @ 10 μM ([19]; RPS6KA4(Kin.Dom.2-C-terminal)): 88 % Ctrl
% Ctrl @ 10 μM [20]: 96 % Ctrl
% Ctrl @ 10 μM [21]: 100 % Ctrl
% Ctrl @ 10 μM [22]: 100 % Ctrl
% Ctrl @ 10 μM [23]: 82 % Ctrl
% Ctrl @ 10 μM [24]: 100 % Ctrl
% Ctrl @ 10 μM [25]: 100 % Ctrl
% Ctrl @ 10 μM [26]: 98 % Ctrl
% Ctrl @ 10 μM [27]: 100 % Ctrl
% Ctrl @ 10 μM [28]: 97 % Ctrl
% Ctrl @ 10 μM [29]: 77 % Ctrl
% Ctrl @ 10 μM [30]: 96 % Ctrl
% Ctrl @ 10 μM [31]: 80 % Ctrl
% Ctrl @ 10 μM [32]: 96 % Ctrl

Reference: patent US9682995B2, “Amino-substituted isothiazoles” (BAYER PHARMA AKTIENGESELLSCHAFT, priority 2013, dated 2017)
